Assays:
foxtail, giant = test: Test A preemergence; assay type: in vivo, Setaria faberii; details: preemergence
In short: (§1)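 Seeds were sown in a loam soil–sand blend and given a directed soil spray preemergence; postemergence plants at 2–10 cm, one- to two-leaf stage, were sprayed with compound in non-phytotoxic solvent with surfactant. After about 10 days in a greenhouse, injury was visually rated against untreated controls (0 = no effect, 100 = complete control).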

morningglory = test: Test A preemergence; assay type: in vivo, Ipomoea spp.; details: preemergence
In short: as §1

corn [1] = test: Test A preemergence; assay type: in vivo, Zea mays; details: preemergence
In short: as §1

barnyardgrass [2] = test: Test A postemergence; assay type: in vivo, Echinochloa crus-galli
In short: as §1

velvetleaf [3] = test: Test A postemergence; assay type: in vivo, Abutilon theophrasti
In short: as §1

corn [4] = test: Test A postemergence; assay type: in vivo, Zea mays
In short: as §1

galium = test: Test C preemergence; assay type: in vivo, Galium aparine; details: for Galium plant response rating: preemergence, scale 0 to 100 (0 no effect, 100 complete control), 13 to 15 days
In short: (§2)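 Seeds sown in loam–sand blend and treated preemergence with test chemicals in non-phytotoxic solvent with surfactant; postemergence plants in peat-based medium, treated at 2–18 cm (1- to 4-leaf stage). Greenhouse 13 to 15 days, then visual rating versus controls, 0 (no effect) to 100 (complete control).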

barnyardgrass [5] = test: Test C preemergence; assay type: in vivo, Echinochloa crus-galli; details: for Barnyardgrass plant response rating: preemergence
Source text: (§3) Seeds of plant species selected from blackgrass (Alopecurus myosuroides), ryegrass, Italian (Italian ryegrass, Lolium multiflorum), wheat (winter wheat, Triticum aestivum), galium (catchweed bedstraw, Galium aparine), corn (Zea mays), crabgrass, large (large crabgrass, Digitaria sanguinalis), foxtail, giant (giant foxtail, Setaria faberii), johnsongrass (Sorghum halepense), lambsquarters (Chenopodium album), morningglory (Ipomoea coccinea), nutsedge, yellow (yellow nutsedge, Cyperus esculentus), pigweed (redroot pigweed, Amaranthus retroflexus), ragweed (common ragweed, Ambrosia elation), soybean (Glycine max), barnyardgrass (Echinochloa crus-galli), oilseed rape (Brassica napus), waterhemp (common waterhemp, Amaranthus rudis), oat, wild (wild oat, Avena fatua), kochia (Kochia scoparia), Surinam grass (Brachiaria decumbens), foxtail, green (green foxtail, Setaria viridis), goosegrass (Eleusine indica), bromegrass, downy (downy bromegrass, Bromus tectorum), nightshade (eastern black nightshade, Solanum ptycanthum), cocklebur (common cocklebur, Xanthium strumarium), cupgrass, woolly (woolly cupgrass, Eriochloa villosa), bermudagrass (Cynodon dactylon), sunflower, (common oilseed sunflower, Helianthus annuus), Russian thistle (Salsola kali), and velvetleaf (Abutilon theophrasti) were planted into a blend of loam soil and sand and treated preemergence with test chemicals formulated in a non-phytotoxic solvent mixture which included a surfactant.
(§4) At the same time, plants selected from these crop and weed species and also chickweed (common chickweed, Stellaria media), canarygrass (littleseed canarygrass, Phalaris minor), and deadnettle (henbit deadnettle, Lamium amplexicaule), were planted in pots containing Redi-Earth® planting medium (Scotts Company, 14111 Scottslawn Road, Marysville, Ohio 43041) comprising spaghnum peat moss, vermiculite, wetting agent and starter nutrients and treated with postemergence applications of test chemicals formulated in the same manner. Plants ranged in height from 2 to 18 cm (1- to 4-leaf stage) for postemergence treatments. Treated plants and controls were maintained in a greenhouse for 13 to 15 days, after which time all species were compared to controls and visually evaluated. Plant response ratings, summarized in Table C, are based on a scale of 0 to 100 where 0 is no effect and 100 is complete control. A dash (-) response means no test result.

lambsquarters = test: Test C postemergence; assay type: in vivo, Chenopodium album
In short: as §2

pigweed = test: Test C postemergence; assay type: in vivo, Amaranthus retroflexus
In short: as §2

barnyardgrass [6] = test: Test C postemergence; assay type: in vivo, Echinochloa crus-galli
Source text: as §3, §4

oilseed rape = test: Test C postemergence; assay type: in vivo, Brassica napus
Source text: as §3, §4

oat, wild = test: Test C postemergence; assay type: in vivo, Avena fatua
In short: as §2

velvetleaf [7] = test: Test C postemergence; assay type: in vivo, Abutilon theophrasti
In short: as §2

chickweed = test: Test C postemergence; assay type: in vivo, Stellaria media
In short: as §2

[8] = 125 g ai/ha, visual injury, 0 to 100 scale, approx. 10 days
[9] = 500 g ai/ha, visual injury after approx. 10 days, 0 to 100 scale (0 no effect, 100 complete control)
[10] = Postemergence, 500 g ai/ha, visual rating after approx. 10 days, 0 to 100 scale (0 no effect, 100 complete control)
[11] = postemergence, 125 g ai/ha, about 10 days, visual rating on 0 to 100 scale (0 no effect, 100 complete control)
[12] = Postemergence, 31 g ai/ha, visually evaluated after 13 to 15 days
[13] = postemergence, 62 g ai/ha, scale 0 to 100
[14] = postemergence, 250 g ai/ha, scale 0 to 100 (0 no effect, 100 complete control)
[15] = postemergence, 125 g ai/ha, scale 0 to 100, 0 no effect, 100 complete control

CCc1cc(-c2ccc(C(F)(F)F)cc2)nn1Cc1ccnc(C(F)(F)F)c1 [Compound 110]
Foxtail, Giant plant response rating (foxtail, giant; [8]): 100
Foxtail, Giant plant response rating (foxtail, giant; [9]): 100
Morningglory plant response rating (morningglory; [8]): 90
Morningglory plant response rating (morningglory; [9]): 100
Corn plant response rating (corn [1]; [8]): 80
Corn plant response rating (corn [1]; [9]): 90
Barnyardgrass plant response rating (barnyardgrass [2]; [10]): 90
Barnyardgrass plant response rating (barnyardgrass [2]; [11]): 80
Velvetleaf plant response rating (velvetleaf [3]; [10]): 100
Velvetleaf plant response rating (velvetleaf [3]; [11]): 90
Corn plant response rating (corn [4]; [10]): 90
Corn plant response rating (corn [4]; [11]): 80
Plant response rating (scale of 0 to 100), Galium (galium; Preemergence, 250 g ai/ha): 100
Galium plant response rating (galium; 31 g ai/ha, visual rating): 50
Galium plant response rating (galium; 62 g ai/ha): 90
Plant response rating (scale of 0 to 100), Barnyardgrass (barnyardgrass [5]; Preemergence, 250 g ai/ha): 90
Barnyardgrass plant response rating (barnyardgrass [5]; 31 g ai/ha, scale 0 to 100 (0 no effect, 100 complete control), 13 to 15 days): 25
Barnyardgrass plant response rating (barnyardgrass [5]; 62 g ai/ha, scale 0 to 100 (0 no effect, 100 complete control), 13 to 15 days): 30
Barnyardgrass plant response rating (barnyardgrass [5]; 125 g ai/ha, scale 0 to 100, 0 is no effect, 100 is complete control): 65
Plant response rating (scale of 0 to 100 where 0 is no effect and 100 is complete control), Lambsquarters (lambsquarters; [12]): 40
Lambsquarters plant response rating (lambsquarters; [13]): 75
Plant response rating, Lambsquarters (lambsquarters; [14]): 98
Plant response rating, Lambsquarters (lambsquarters; [15]): 85
Plant response rating (scale of 0 to 100 where 0 is no effect and 100 is complete control), Pigweed (pigweed; [12]): 85
Pigweed plant response rating (pigweed; [13]): 85
Plant response rating, Pigweed (pigweed; [14]): 98
Plant response rating, Pigweed (pigweed; [15]): 90
Plant response rating (scale of 0 to 100 where 0 is no effect and 100 is complete control), Barnyardgrass (barnyardgrass [6]; [12]): 20
Barnyardgrass plant response rating (barnyardgrass [6]; [13]): 35
Plant response rating, Barnyardgrass (barnyardgrass [6]; [14]): 65
Plant response rating, Barnyardgrass (barnyardgrass [6]; [15]): 55
Plant response rating (scale of 0 to 100 where 0 is no effect and 100 is complete control), Oilseed Rape (oilseed rape; [12]): 60
Oilseed Rape plant response rating (oilseed rape; [13]): 85
Plant response rating, Oilseed Rape (oilseed rape; [14]): 90
Plant response rating, Oilseed Rape (oilseed rape; [15]): 90
Plant response rating (scale of 0 to 100 where 0 is no effect and 100 is complete control), Oat, Wild (oat, wild; [12]): 5
Oat, Wild plant response rating (oat, wild; [13]): 25
Plant response rating, Oat, Wild (oat, wild; [14]): 35
Plant response rating, Oat, Wild (oat, wild; [15]): 30
Plant response rating (scale of 0 to 100 where 0 is no effect and 100 is complete control), Velvetleaf (velvetleaf [7]; [12]): 30
Velvetleaf plant response rating (velvetleaf [7]; [13]): 50
Plant response rating, Velvetleaf (velvetleaf [7]; [14]): 75
Plant response rating, Velvetleaf (velvetleaf [7]; [15]): 70
Plant response rating (scale of 0 to 100 where 0 is no effect and 100 is complete control), Chickweed (chickweed; [12]): 70
Chickweed plant response rating (chickweed; [13]): 70
Plant response rating, Chickweed (chickweed; [14]): 95
Plant response rating, Chickweed (chickweed; [15]): 90
